Among the data in patent publication US8188102B2, “Amide derivative for inhibiting the growth of cancer cells” (Hanmi Holdings Co., Ltd., priority 2007, dated 2012) are IC50 values, retold here.

Experiment [1] deals with SW-620 colon/rectal cancer cell line. In words: Cancer cell growth inhibition, SW-620 (SRB). The settings on record: Homo sapiens, SW-620, 72 h, read-out: IC50 (nM) SW-620.
Experiment [2] concerns SK-Br3 breast cancer cell line. In words: Cancer cell growth inhibition, SK-Br3 (SRB). The settings on record: Homo sapiens, SK-BR-3, 72 h, read-out: ID50 (nM) SK-Br3.
Experiment [3] concerns A431 skin cancer cell line. In words: Cancer cell growth inhibition, A431 (SRB). As to conditions: Homo sapiens, A-431, 72 h, read-out: ID50 (nM) A431.
The target of another experiment is EGFR T790M kinase (Homo sapiens, UniProt P00533, T790M). In words: Inhibition of EGFR mutant enzyme (T790M). The settings on record: read-out: IC50 (nM) T790M; EGFR T790M kinase.
EGFR T790M kinase, sequence (P00533 25-1210 T790M): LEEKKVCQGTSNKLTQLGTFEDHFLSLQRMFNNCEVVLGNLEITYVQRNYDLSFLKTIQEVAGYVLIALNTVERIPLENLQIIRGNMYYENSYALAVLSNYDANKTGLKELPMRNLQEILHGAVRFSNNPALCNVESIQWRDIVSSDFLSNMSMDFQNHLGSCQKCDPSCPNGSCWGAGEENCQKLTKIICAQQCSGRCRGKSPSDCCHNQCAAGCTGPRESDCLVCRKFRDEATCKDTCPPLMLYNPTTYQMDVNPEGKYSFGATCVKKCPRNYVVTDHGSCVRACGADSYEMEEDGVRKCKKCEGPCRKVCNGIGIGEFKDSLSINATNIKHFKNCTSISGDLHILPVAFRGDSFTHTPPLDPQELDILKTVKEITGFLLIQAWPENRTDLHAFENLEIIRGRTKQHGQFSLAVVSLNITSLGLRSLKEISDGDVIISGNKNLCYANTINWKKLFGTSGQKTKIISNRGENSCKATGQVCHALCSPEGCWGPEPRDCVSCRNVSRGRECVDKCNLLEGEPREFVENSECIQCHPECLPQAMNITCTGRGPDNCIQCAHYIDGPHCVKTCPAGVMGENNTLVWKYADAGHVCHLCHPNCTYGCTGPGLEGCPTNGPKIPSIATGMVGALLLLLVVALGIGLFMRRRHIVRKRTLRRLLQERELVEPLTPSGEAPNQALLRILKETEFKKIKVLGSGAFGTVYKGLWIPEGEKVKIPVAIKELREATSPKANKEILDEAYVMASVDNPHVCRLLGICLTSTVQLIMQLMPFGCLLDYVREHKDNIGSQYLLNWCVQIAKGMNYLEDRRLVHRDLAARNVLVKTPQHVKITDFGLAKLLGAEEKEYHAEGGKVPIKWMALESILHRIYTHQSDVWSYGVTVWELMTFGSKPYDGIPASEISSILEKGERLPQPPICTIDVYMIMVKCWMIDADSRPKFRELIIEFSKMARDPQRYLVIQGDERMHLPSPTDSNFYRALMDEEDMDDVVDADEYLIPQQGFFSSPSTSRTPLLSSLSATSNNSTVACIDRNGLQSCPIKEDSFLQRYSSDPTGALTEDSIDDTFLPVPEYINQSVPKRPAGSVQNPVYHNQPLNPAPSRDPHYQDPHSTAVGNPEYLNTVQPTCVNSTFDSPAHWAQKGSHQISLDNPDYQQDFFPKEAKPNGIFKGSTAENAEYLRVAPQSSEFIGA
For experiment [4], the system named is H1975 lung cancer cell line. The experiment in a line: Cancer cell growth inhibition, H1975 (celltiter). The settings on record: Homo sapiens, NCI-H1975, 48 h, read-out: IC50 (nM) H1975.
Method: The medium was removed from each well of the 96-well plate.
In case of H1975, the cells were diluted with a culture medium to a concentration of 50,000 cells/ml. 100 μl of the diluted cell solution was added to each well of a 96-well plate, and, after 1 day, was washed with a mixture of RPMI, 0.1% FBS and 1% penicillin-streptomycin (PS), followed by replacement of the medium. The plate was allowed to be kept overnight and be treated to various concentrations under the same medium condition for 48 hrs. Similarly to an MTT assay, 15 μl of a celltiter one shot solution (Promega) was added to each well, which was incubated for 2 to 3 hrs, and, then, the absorbance at 490 nm was determined.

As to `C=CC(=O)N1CCC(Oc2cc3c(Nc4cccc(C(F)(F)F)c4)ncnc3cc2OC)CC1` [Example 58, 1-(4-(7-methoxy-4-(3-(trifluoromethyl)phenylamino)quinazolin-6-yloxy)piperidin-1-yl)pro-2-pen-1-one], the IC50 in experiment [1] is > 5000 nM; in experiment [2], 20 nM; in experiment [3], 58 nM; at EGFR T790M kinase, 16.2 nM.

For `C=CC(=O)N1CCC(Oc2cc3c(Nc4cccc(C=C)c4)ncnc3cc2OC)CC1` [Example 73, 1-(4-(7-methoxy-4-(3-vinylphenylamino)quinazolin-6-yloxy)piperidin-1-yl)pro-2-pen-1-one], the IC50 is > 5000 nM in experiment [1]; 27 nM in experiment [4]; 1.2 nM in experiment [2]; 1.9 nM in experiment [3]; 3 nM on EGFR T790M kinase.

With `C=C(CN(C)C)C(=O)N1CC(Oc2cc3c(Nc4ccc(F)c(Cl)c4F)ncnc3cc2OC)C1` [Example 104, 1-(3-(4-(3-chloro-2,4-difluorophenylamino)-7-methoxyquinazolin-6-yloxy)azetidin-1-yl)-2-((dimethylamino)methyl)prop-2-en-1-one], the IC50 is > 5000 nM in experiment [1]; 11 nM in experiment [4]; 1.5 nM in experiment [2]; 41 nM in experiment [3]; 2 nM at EGFR T790M kinase.

On to `C=C(CN1CCOCC1)C(=O)N1CC(Oc2cc3c(Nc4ccc(F)c(Cl)c4F)ncnc3cc2OC)C1` [Example 105, 1-(3-(4-(3-chloro-2,4-difluorophenylamino)-7-methoxyquinazolin-6-yloxy)azetidin-1-yl)-2-(morpholinomethyl)prop-2-en-1-one], for which the IC50 in experiment [1] is > 5000 nM; in experiment [4] it was 8 nM; in experiment [2], 0.5 nM; in experiment [3], 1.5 nM; at EGFR T790M kinase, 4 nM.

For the molecule `C=CC(=O)N1CC[C@H](Oc2cc3c(Nc4ccc(F)c(Cl)c4F)ncnc3cc2OC)C[C@H]1C(=O)NCCO` [Example 126, (2S,4S)-1-acryloyl-4-(4-(3-chloro-2,4-difluorophenylamino)-7-methoxyquinazolin-6-yloxy)-N-(2-hydroxyethyl)piperidin-2-carboxamide], the IC50 is > 5000 nM in experiment [1]; 39 nM in experiment [4]; 0.9 nM in experiment [2]; 5.4 nM in experiment [3]; 1.8 nM on EGFR T790M kinase.

Regarding `C=CC(=O)N1CC[C@H](Oc2cc3c(Nc4ccc(F)c(Cl)c4F)ncnc3cc2OC)C[C@H]1C(=O)NCCOC` [Example 127, (2S,4S)-1-acryloyl-4-(4-(3-chloro-2,4-difluorophenylamino)-7-methoxyquinazolin-6-yloxy)-N-(2-methoxyethyl)piperidin-2-carboxamide], the IC50 in experiment [1] is > 5000 nM; in experiment [4], 11 nM; in experiment [2] it was 2.3 nM; in experiment [3], 3.4 nM; on EGFR T790M kinase it was 3.8 nM.

As for `C=CC(=O)N1CC[C@H](Oc2cc3c(Nc4ccc(F)c(Cl)c4F)ncnc3cc2OC)C[C@H]1C(=O)NCCSC` [Example 128, (2S,4S)-1-acryloyl-4-(4-(3-chloro-2,4-difluorophenylamino)-7-methoxyquinazolin-6-yloxy)-N-(2-(methylthio)ethyl)piperidin-2-carboxamide], the IC50 is > 5000 nM in experiment [1]; 5 nM in experiment [4]; 5 nM in experiment [2]; 2.4 nM in experiment [3]; 1.4 nM on EGFR T790M kinase.

As for `C=CC(=O)N1CC[C@H](Oc2cc3c(Nc4ccc(F)c(Cl)c4F)ncnc3cc2OC)C[C@H]1C(=O)NCCS(C)(=O)=O` [Example 129, (2S,4S)-1-acryloyl-4-(4-(3-chloro-2,4-difluorophenylamino)-7-methoxyquinazolin-6-yloxy)-N-(2-(methylsulfonyl)ethyl)piperidin-2-carboxamide], the IC50 is 50.4 nM in experiment [4], 0.6 nM in experiment [2], 2.2 nM in experiment [3] and 3 nM at EGFR T790M kinase.

As to `C=CC(=O)N1CC[C@H](Oc2cc3c(Nc4ccc(F)c(Cl)c4F)ncnc3cc2OC)C[C@H]1C(=O)NCCN(C)C` [Example 130, (2S,4S)-1-acryloyl-4-(4-(3-chloro-2,4-difluorophenylamino)-7-methoxyquinazolin-6-yloxy)-N-(2-(dimethylamino)ethyl)piperidin-2-carboxamide], the IC50 is > 5000 nM in experiment [1]; 30 nM in experiment [4]; 0.9 nM in experiment [2]; 5.7 nM in experiment [3]; 6.6 nM on EGFR T790M kinase.

Regarding `C=CC(=O)N1CC[C@@H](Oc2cc3c(Nc4ccc(F)c(Cl)c4F)ncnc3cc2OC)C[C@@H]1C(=O)NC` [Example 136, (2R,4R)-1-acryloyl-4-(4-(3-chloro-2,4-difluorophenylamino)-7-methoxyquinazolin-6-yloxy)-N-methylpiperidin-2-carboxamide], the IC50 in experiment [1] was > 5000 nM; in experiment [4] it was 2.6 nM; in experiment [2], 0.2 nM; in experiment [3] it was 2.9 nM; on EGFR T790M kinase, 0.9 nM.
